Results on 37 compounds are retold here after US8791143B2, “Anthranilic diamide derivatives having cyclic side-chains” (priority 2010, dated 2014).

Like-named read-outs stand apart in the source and are kept apart here.

The nature of data set [1]: log P by HPLC on reversed-phase columns (EEC Directive 79/831 Annex V.A8). The format is physicochemical.
In data set [2] the test system is larvae of the mustard beetle (Phaedon cochleariae). The data set can be described thus: Phaedon test (PHAECO spray treatment). As to conditions: Phaedon cochleariae, 168 h, read-out: activity in % (beetle larvae killed).
Data set [3] has as its system caterpillars of the armyworm (Spodoptera frugiperda). The data set can be described thus: Spodoptera frugiperda test (SPODFR spray treatment). The format is in vivo. As to conditions: Spodoptera frugiperda, 168 h, read-out: activity in % (caterpillars killed).
[4] abbreviates: reversed-phase C18 HPLC column, pH 2.7, HPLC reversed-phase C18, acidic range pH 2.7 (HCOOH), only or first value of the cell, read-out: log P.
[5] abbreviates: application rate 100 g/ha, after 7 days.

In data set [1] (pH 2.7, log P), `O=C(NC1COC1)c1cc(Cl)cc(Cl)c1NC(=O)c1cc(Cn2nnc(C(F)(F)F)n2)nn1-c1ncccc1Cl` [Example 5] showed a chromatographic logP of 2.79. In addition, the pest or weed control at 100 g/ha in data set [2] and in data set [3] was 100% in each case.
As for `Cc1cc(Cl)cc(C(=O)NC2COC2)c1NC(=O)c1cc(Cn2nc(C(F)(F)F)nc2C(F)(F)F)nn1-c1ncccc1Cl` [Example 8], the chromatographic logP in data set [1] (pH 2.7, log P) was determined as 3.24. Also, the pest or weed control at 100 g/ha in data set [2] and in data set [3] was 100% each time.
As for `Cc1cc(Cl)cc(C(=O)NC2COC2)c1NC(=O)c1cc(Cn2nnc(C(F)(F)C(F)(F)F)n2)nn1-c1ncccc1Cl` [Example 9], the chromatographic logP in data set [1] (pH 2.7, log P) is 3.21. Also, the pest or weed control at 100 g/ha in data set [2] and in data set [3] was 100% in each case.
Compound `Cc1cc(C#N)cc(C(=O)NC2CSC2)c1NC(=O)c1cc(Cn2nnc(C(F)(F)C(F)(F)F)n2)nn1-c1ncccc1Cl` [Example 11] had a chromatographic logP in data set [1] (pH 2.7, log P) of 3.43. Further, the pest or weed control at 100 g/ha in data set [2] and in data set [3] was 100% throughout.
In data set [1] (pH 2.7, log P), `Cc1cc(C#N)cc(C(=O)NC2COC2)c1NC(=O)c1cc(Cn2nnnc2C(F)(F)F)nn1-c1ncccc1Cl` [Example 12] had a chromatographic logP of 2.17. In addition, the pest or weed control at 100 g/ha in data set [2] and in data set [3] was 100% each time.
`Cc1cc(C#N)cc(C(=O)NC2COC2)c1NC(=O)c1cc(Cn2nc(C(F)(F)F)nc2C(F)(F)F)nn1-c1ncccc1Cl` [Example 13] came in with a chromatographic logP in data set [1] (pH 2.7, log P) of 2.95. The pest or weed control at 100 g/ha in data set [2] and in data set [3] was 100% in each case.
`Cc1cc(C#N)cc(C(=O)NC2COC2)c1NC(=O)c1cc(Cn2nnc(C(F)F)n2)nn1-c1ncccc1Cl` [Example 17] showed a chromatographic logP in data set [1] (pH 2.7, log P) of 2.05. Moreover, in data set [3], the pest or weed control at 100 g/ha stood at 83%.
As for `O=C(NC1COC1)c1cc(Cl)cc(Cl)c1NC(=O)c1cc(Cn2nnc(C(F)F)n2)nn1-c1ncccc1Cl` [Example 19], the chromatographic logP in data set [1] (pH 2.7, log P) turned out to be 2.37. Also, the pest or weed control at 100 g/ha in data set [3] was 100%.
Turning to `Cc1cc(Cl)cc(C(=O)NC2=NCCS2)c1NC(=O)c1cc(Cn2nnc(C(F)(F)C(F)(F)F)n2)nn1-c1ncccc1Cl` [Example 47], the “log P (second value after the slash)” value in data set [1] (pH 2.7) is given as 3.58. Besides, the chromatographic logP in data set [1] (pH 2.7, log P) came out at 3.9. Also, the pest or weed control at 100 g/ha in data set [2] and in data set [3] was 100% each time.
In the case of `Cc1cc(C#N)cc(C(=O)NC2CCS(=O)(=O)C2)c1NC(=O)c1cc(Cn2nnc(C(F)(F)F)n2)nn1-c1c(F)cccc1F` (stereo not shown) [Example 52], the chromatographic logP in data set [1] (setting [4]) is 2.75. Also, the pest or weed control at 100 g/ha in data set [2] and in data set [3] (setting [5]) was 100% throughout.
`Cc1cc(Cl)cc(C(=O)NC2CCN(C)CC2)c1NC(=O)c1cc(Cn2nnc(C(F)(F)F)n2)nn1-c1ncccc1Cl` [Example 55] displayed a chromatographic logP in data set [1] (pH 2.7, log P) of 4.14. The pest or weed control at 100 g/ha in data set [3] was 100%.
As for `Cc1cc(Cl)cc(C(=O)NC2CCSCC2)c1NC(=O)c1cc(Cn2nnc(C(F)(F)F)n2)nn1-c1ncccc1Cl` [Example 56], the chromatographic logP in data set [1] (pH 2.7, log P) was determined as 3.58. Besides, the pest or weed control at 100 g/ha in data set [2] and in data set [3] was 100% in each case.
Consider `Cc1cc(Cl)cc(C(=O)NCC2CCCO2)c1NC(=O)c1cc(Cn2nnc(C(F)(F)F)n2)nn1-c1ncccc1Cl` (stereo not shown) [Example 60], for which the chromatographic logP in data set [1] (pH 2.7, log P) is 3.25. For the same compound, the pest or weed control at 100 g/ha in data set [3] turned out to be 100%.
In data set [1] (pH 2.7, log P), `Cc1cc(Cl)cc(C(=O)NCC2(C)CCCO2)c1NC(=O)c1cc(Cn2nnc(C(F)(F)F)n2)nn1-c1ncccc1Cl` (stereo not shown) [Example 61] came in with a chromatographic logP of 3.48. Moreover, the pest or weed control at 100 g/ha in data set [2] and in data set [3] was 100% in each case.
For the compound `Cc1cc(C#N)cc(C(=O)NCc2cccc(S(F)(F)(F)(F)F)c2)c1NC(=O)c1cc(Cn2nnc(C(F)(F)F)n2)nn1-c1ncccc1Cl` [Example 63], the chromatographic logP in data set [1] (setting [4]) was 4.02. Further, the pest or weed control at 100 g/ha in data set [2] and in data set [3] (setting [5]) was 100% throughout.
As for `Cc1cc(C#N)cc(C(=O)NCc2ccc(S(F)(F)(F)(F)F)cc2)c1NC(=O)c1cc(Cn2nnc(C(F)(F)F)n2)nn1-c1ncccc1Cl` [Example 64], the chromatographic logP in data set [1] (setting [4]) is 4.01. Further, the pest or weed control at 100 g/ha in data set [2] and in data set [3] (setting [5]) was 100% each time.
For the compound `Cc1cc(C#N)cc(C(=O)NCc2ccc(Cl)nc2)c1NC(=O)c1cc(Cn2nnc(C(F)(F)F)n2)nn1-c1ncccc1Cl` [Example 66], the chromatographic logP in data set [1] (pH 2.7, log P) stood at 3.11. Moreover, the pest or weed control at 100 g/ha in data set [2] and in data set [3] was 100% throughout.
With `Cc1cc(C#N)cc(C(=O)NC(C)c2ccc(Cl)cc2)c1NC(=O)c1cc(Cn2nnc(C(F)(F)F)n2)nn1-c1ncccc1Cl` (stereo not shown) [Example 67], the chromatographic logP in data set [1] (setting [4]) is 3.91. Besides, the pest or weed control at 100 g/ha in data set [2] and in data set [3] (setting [5]) was 100% in each case.
Consider `Cc1cc(C#N)cc(C(=O)NCc2cccc(S(F)(F)(F)(F)F)c2)c1NC(=O)c1cc(Cn2nnnc2C(F)(F)F)nn1-c1ncccc1Cl` [Example 68], for which the chromatographic logP in data set [1] (setting [4]) is 3.69. The pest or weed control at 100 g/ha in data set [2] and in data set [3] (setting [5]) was 100% in each case.
Consider `Cc1cc(C#N)cc(C(=O)NCc2ccccc2)c1NC(=O)c1cc(Cn2nnc(C(F)(F)F)n2)nn1-c1ccccc1Cl` [Example 71], for which the chromatographic logP in data set [1] (setting [4]) was determined as 3.77. Further, the pest or weed control at 100 g/ha in data set [2] and in data set [3] (setting [5]) was 100% each time.
`Cc1cc(Cl)cc(C(=O)Nc2ccc(Cl)cc2)c1NC(=O)c1cc(Cn2nnc(C(F)(F)F)n2)nn1-c1ncccc1Cl` [Example 73] came in with a chromatographic logP in data set [1] (pH 2.7, log P) of 4.17. The pest or weed control at 100 g/ha in data set [2] and in data set [3] was 100% each time.
Consider `Cc1cc(C#N)cc(C(=O)NC(C)c2ccccc2)c1NC(=O)c1cc(Cn2nnc(C(F)(F)F)n2)nn1-c1ccccc1Cl` (stereo not shown) [Example 74], for which the chromatographic logP in data set [1] (setting [4]) was 3.68. Moreover, the pest or weed control at 100 g/ha in data set [2] and in data set [3] (setting [5]) was 100% each time.
Take `Cc1cc(C#N)cc(C(=O)NCc2cccc(Cl)c2)c1NC(=O)c1cc(Cn2nnc(C(F)(F)F)n2)nn1-c1ccccc1Cl` [Example 75]: the chromatographic logP in data set [1] (setting [4]) was determined as 3.76. The pest or weed control at 100 g/ha in data set [2] and in data set [3] (setting [5]) was 100% in each case.
As for `COc1ccc(CNC(=O)c2cc(C#N)cc(C)c2NC(=O)c2cc(Cn3nnc(C(F)(F)F)n3)nn2-c2ccccc2Cl)cc1` [Example 76], the chromatographic logP in data set [1] (setting [4]) amounted to 3.77. The pest or weed control at 100 g/ha in data set [2] and in data set [3] (setting [5]) was 100% throughout.
As for `Cc1cc(C#N)cc(C(=O)NCc2ccc(Cl)cc2Cl)c1NC(=O)c1cc(Cn2nnc(C(F)(F)F)n2)nn1-c1ccccc1Cl` [Example 77], in data set [1] (setting [4]), the chromatographic logP was found to be 4.42. In addition, the pest or weed control at 100 g/ha in data set [2] and in data set [3] (setting [5]) was 100% each time.
On to `Cc1ccc(CNC(=O)c2cc(C#N)cc(C)c2NC(=O)c2cc(Cn3nnc(C(F)(F)F)n3)nn2-c2ccccc2Cl)cc1` [Example 78], for which the chromatographic logP in data set [1] (setting [4]) was 3.74. For the same compound, the pest or weed control at 100 g/ha in data set [3] (setting [5]) is 100%.
Take `Cc1cc(Cl)cc(C(=O)NCc2ccccc2)c1NC(=O)c1cc(Cn2nnc(C(F)(F)F)n2)nn1-c1ncccc1Cl` [Example 81]: in data set [1] (pH 2.7, log P), the chromatographic logP was 3.77. For the same compound, the pest or weed control at 100 g/ha in data set [2] and in data set [3] was 100% throughout.
The compound `Cc1ccc(CNC(=O)c2cc(Cl)cc(C)c2NC(=O)c2cc(Cn3nnc(C(F)(F)F)n3)nn2-c2ncccc2Cl)cc1` [Example 90] gave a chromatographic logP in data set [1] (pH 2.7, log P) of 4.08. Further, the pest or weed control at 100 g/ha in data set [3] turned out to be 100%.
Turning to `Cc1cc(C#N)cc(C(=O)NCc2ccccc2)c1NC(=O)c1cc(Cn2nnc(CCC(F)(F)F)n2)nn1-c1ncccc1Cl` [Example 130], the chromatographic logP in data set [1] (setting [4]) stood at 3.21. In addition, the pest or weed control at 100 g/ha in data set [2] was 100%.
Take `Cc1cc(I)cc(C(=O)NCc2cccc(OC(F)(F)F)c2)c1NC(=O)c1cc(Cn2nnc(C(F)(F)C(F)(F)F)n2)nn1-c1ncccc1Cl` [Example 147]: in data set [1] (setting [4]), the chromatographic logP was 4.36. The pest or weed control at 100 g/ha in data set [2] worked out at 100%.
On to `Cc1cc(C#N)cc(C(=O)NCc2ccccc2OC(F)(F)F)c1NC(=O)c1cc(Cn2nnc(C(F)F)n2)nn1-c1ncccc1Cl` [Example 162], for which the chromatographic logP in data set [1] (setting [4]) worked out at 3.37. Moreover, in data set [2], the pest or weed control at 100 g/ha was 100%.
Regarding `Cc1cc(C#N)cc(C(=O)NCc2ccc(OC(F)(F)F)cc2)c1NC(=O)c1cc(Cn2nnc(C(F)(F)F)n2)nn1-c1c(Cl)cccc1Cl` [Example 181], the chromatographic logP in data set [1] (setting [4]) was 4.46. The pest or weed control at 100 g/ha in data set [3] (setting [5]) was 100%.
`O=C(NCc1ccccc1OC(F)(F)F)c1cc2ccccc2c(Cl)c1NC(=O)c1cc(Cn2nnc(C(F)(F)F)n2)nn1-c1ncccc1Cl` [Example 221]: the chromatographic logP in data set [1] (setting [4]) stood at 4.36. Besides, the pest or weed control at 100 g/ha in data set [3] (setting [5]) was found to be 100%.
As for `O=C(NCc1cccc(OC(F)(F)F)c1)c1cc2ccccc2c(Cl)c1NC(=O)c1cc(Cn2nnc(C(F)(F)F)n2)nn1-c1ncccc1Cl` [Example 222], in data set [1] (setting [4]), the chromatographic logP came to 4.38. Moreover, the pest or weed control at 100 g/ha in data set [3] (setting [5]) amounted to 100%.
For `O=C(NCc1ccc(OC(F)(F)F)cc1)c1cc2ccccc2c(Cl)c1NC(=O)c1cc(Cn2nnc(C(F)(F)F)n2)nn1-c1ncccc1Cl` [Example 223] the same measures were 4.36 and 100%.
Consider `Cc1ccc(CNC(=O)c2cc(Cl)cc(C)c2NC(=O)c2cc(Cn3nnc(C(F)(F)F)n3)nn2-c2ncccc2Cl)nc1C` [Example 227], for which, in data set [1] (pH 2.7, log P), the chromatographic logP came to 2.1. Moreover, the pest or weed control at 100 g/ha in data set [3] amounted to 100%.
As for `CCCc1cccc(CNC(=O)c2cc(Cl)cc(C)c2NC(=O)c2cc(Cn3nnc(C(F)(F)F)n3)nn2-c2ncccc2Cl)n1` [Example 229], the chromatographic logP in data set [1] (setting [4]) came to 2.94. Moreover, in data set [2], the pest or weed control at 100 g/ha turned out to be 100%.
